Test results as given in PubChem BioAssay AID330 (DTP/NCI, 2004).
Toxic doses and inconclusive results are not listed. Peptide text beside a SMILES is read from it. * marks the point of attachment. Cbz = O=C(OCc1ccccc1)*; OtBu = CC(C)(C)O*

System: P388 leukemia ip, CD2F1 mice, survival T/C
Test: NCI In Vivo Anticancer Drug Screen. Data for tumor model P388 Leukemia (intraperitoneal) in CD2F1 (CDF1) mice
Conditions: endpoint: median survival time, higher = longer survival
Summary of the method: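 Mice carrying the transplanted tumor received test compound or vehicle. Survival was recorded in each group, and the value is the treated-group measurement divided by that of the vehicle-treated control group.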

[1] = dose: 50.0 mg/kg/injection, schedule: Q01DX009 (ip), vehicle: saline with Tween-80
[2] = dose: 100.0 mg/kg/injection, schedule: Q01DX009 (ip), vehicle: saline with Tween-80
[3] = dose: 200.0 mg/kg/injection, schedule: Q01DX009 (ip), vehicle: saline with Tween-80
[4] = dose: 100.0 mg/kg/injection, schedule: Q01DX001 (ip), vehicle: saline with Tween-80
[5] = dose: 200.0 mg/kg/injection, schedule: Q01DX001 (ip), vehicle: saline with Tween-80
[6] = dose: 400.0 mg/kg/injection, schedule: Q01DX001 (ip), vehicle: saline with Tween-80
[7] = dose: 60.0 mg/kg/injection, schedule: Q01DX005 (ip), vehicle: saline with Tween-80
[8] = dose: 120.0 mg/kg/injection, schedule: Q01DX005 (ip), vehicle: saline with Tween-80
[9] = dose: 240.0 mg/kg/injection, schedule: Q01DX005 (ip), vehicle: saline with Tween-80
[10] = dose: 50.0 mg/kg/injection, schedule: Q01DX005 (ip), vehicle: Klucel (hydroxypropylcellulose) (HPC)

COC(=O)c1ncn(C)c1O
T/C (dose: 60.0 mg/kg/injection, schedule: Q01DX005 (ip), vehicle: water): 103 % of control | T/C (dose: 120.0 mg/kg/injection, schedule: Q01DX005 (ip), vehicle: water): 113 % of control | T/C (dose: 240.0 mg/kg/injection, schedule: Q01DX005 (ip), vehicle: water): 104 % of control

COc1ccc(NC(CCN2CCCCC2)=NC(C)(C)C)cc1
T/C [1]: 110 % of control | T/C [2]: 104 % of control | T/C [3]: 101 % of control

O=C1c2ccncc2C(=O)c2c(O)ccc(O)c21
T/C (dose: 12.5 mg/kg/injection, schedule: Q01DX009 (ip), vehicle: distilled water + Tween-80): 102 % of control | T/C (dose: 25.0 mg/kg/injection, schedule: Q01DX009 (ip), vehicle: distilled water + Tween-80): 100 % of control | T/C (dose: 50.0 mg/kg/injection, schedule: Q01DX009 (ip), vehicle: distilled water + Tween-80): 98 % of control | T/C (dose: 100.0 mg/kg/injection, schedule: Q01DX009 (ip), vehicle: distilled water + Tween-80): 109 % of control

COc1cccc(S(=O)c2ccc([N+](=O)[O-])c3no[n+]([O-])c23)c1 (stereo unspecified)
T/C (dose: 3.75 mg/kg/injection, schedule: Q01DX009 (ip), vehicle: saline with Tween-80): 95 % of control | T/C (dose: 7.5 mg/kg/injection, schedule: Q01DX009 (ip), vehicle: saline with Tween-80): 104 % of control | T/C (dose: 15.0 mg/kg/injection, schedule: Q01DX009 (ip), vehicle: saline with Tween-80): 112 % of control

O=C(NC1CCCCC1)N1CCCC1
T/C (dose: 50.0 mg/kg/injection, schedule: Q01DX009 (ip), vehicle: saline): 99 % of control | T/C [2]: 91 % of control | T/C (dose: 100.0 mg/kg/injection, schedule: Q01DX009 (ip), vehicle: saline): 95 % of control | T/C [3]: 86 % of control | T/C (dose: 200.0 mg/kg/injection, schedule: Q01DX009 (ip), vehicle: saline): 102 % of control

c1ccc(N=C2CCCCC2)cc1
T/C (dose: 100.0 mg/kg/injection, schedule: Q01DX001 (ip), vehicle: other): 98 % of control | T/C (dose: 200.0 mg/kg/injection, schedule: Q01DX001 (ip), vehicle: other): 97 % of control | T/C (dose: 400.0 mg/kg/injection, schedule: Q01DX001 (ip), vehicle: other): 106 % of control | T/C (dose: 600.0 mg/kg/injection, schedule: Q01DX001 (ip), vehicle: other): 101 % of control

Cc1ccc(S(=O)(=O)N/N=C/c2c(-c3ccc(-c4ccccc4)cc3)nc3n2CCS3)cc1
T/C [4]: 100 % of control | T/C [5]: 102 % of control | T/C [6]: 90 % of control

Nc1nc2c(C(=O)NCc3cccs3)nnn2c2cccc(Cl)c12
T/C [7]: 96 % of control | T/C [8]: 92 % of control | T/C [9]: 95 % of control

C1CCCN(N2CCOCC2)CC1
T/C (dose: 100.0 mg/kg/injection, schedule: Q01DX001 (ip), vehicle: saline): 104 % of control | T/C (dose: 200.0 mg/kg/injection, schedule: Q01DX001 (ip), vehicle: saline): 98 % of control | T/C (dose: 400.0 mg/kg/injection, schedule: Q01DX001 (ip), vehicle: saline): 101 % of control

O=C(O)Cc1cccc(S(=O)(=O)F)c1
T/C [7]: 104 % of control | T/C [8]: 100 % of control

CC(O)(CCCCCl)c1nc2ccccc2s1 (stereo unspecified)
T/C [4]: 98 % of control | T/C [5]: 103 % of control | T/C [6]: 92 % of control

CCOC(=O)C1=NN(C)C(=O)C1
T/C [4]: 99 % of control | T/C [5]: 115 % of control | T/C [6]: 104 % of control

CCCCn1c(C)nc2c(cnn2C)c1=O
T/C [10]: 114 % of control | T/C (dose: 100.0 mg/kg/injection, schedule: Q01DX005 (ip), vehicle: Klucel (hydroxypropylcellulose) (HPC)): 101 % of control | T/C (dose: 200.0 mg/kg/injection, schedule: Q01DX005 (ip), vehicle: Klucel (hydroxypropylcellulose) (HPC)): 108 % of control

C=C(CN(C)C)C(=O)c1ccc(OC2OC(COC(C)=O)C(OC(C)=O)C(OC(C)=O)C2OC(C)=O)cc1 (stereo unspecified)
T/C (dose: 6.25 mg/kg/injection, schedule: Q01DX005 (ip), vehicle: saline with Tween-80): 106 % of control | T/C (dose: 12.5 mg/kg/injection, schedule: Q01DX005 (ip), vehicle: saline with Tween-80): 109 % of control

O=C1C(=O)C(CN2CCOCC2)=C(N2CCOCC2)C(N2CCOCC2)=C1CN1CCOCC1
T/C (dose: 25.0 mg/kg/injection, schedule: Q01DX005 (ip), vehicle: saline with Tween-80): 100 % of control | T/C (dose: 50.0 mg/kg/injection, schedule: Q01DX005 (ip), vehicle: saline with Tween-80): 100 % of control | T/C (dose: 100.0 mg/kg/injection, schedule: Q01DX005 (ip), vehicle: saline with Tween-80): 98 % of control | T/C (dose: 200.0 mg/kg/injection, schedule: Q01DX005 (ip), vehicle: saline with Tween-80): 100 % of control

O=C(CC1=NC2NN(c3ccccc3)C(=O)C2=C1CC(=O)c1ccc(Cl)c(Cl)c1)c1ccc(Cl)c(Cl)c1 (stereo unspecified)
T/C (dose: 60.0 mg/kg/injection, schedule: Q01DX005 (ip), vehicle: saline): 99 % of control | T/C (dose: 120.0 mg/kg/injection, schedule: Q01DX005 (ip), vehicle: saline): 100 % of control | T/C (dose: 240.0 mg/kg/injection, schedule: Q01DX005 (ip), vehicle: saline): 107 % of control

COC(=O)C1=COC(OC2OC(COC(C)=O)C(OC(C)=O)C(OC(C)=O)C2OC(C)=O)C2C(C)CC(OC(C)=O)C12 (stereo unspecified)
T/C (dose: 12.5 mg/kg/injection, schedule: Q01DX005 (ip), vehicle: Klucel (hydroxypropylcellulose) (HPC)): 105 % of control | T/C (dose: 25.0 mg/kg/injection, schedule: Q01DX005 (ip), vehicle: Klucel (hydroxypropylcellulose) (HPC)): 98 % of control | T/C [10]: 96 % of control

O=S1(=O)OCCCCO1
T/C (dose: 12.5 mg/kg/injection, schedule: Q01DX005 (ip), vehicle: saline): 107 % of control | T/C (dose: 25.0 mg/kg/injection, schedule: Q01DX005 (ip), vehicle: saline): 100 % of control

COC(OC)c1cc(=O)[nH]c(=S)[nH]1
T/C (dose: 50.0 mg/kg/injection, schedule: Q04DX003 (ip), vehicle: saline): 95 % of control | T/C (dose: 100.0 mg/kg/injection, schedule: Q04DX003 (ip), vehicle: saline): 96 % of control | T/C (dose: 200.0 mg/kg/injection, schedule: Q04DX003 (ip), vehicle: saline): 93 % of control | T/C (dose: 400.0 mg/kg/injection, schedule: Q04DX003 (ip), vehicle: saline): 104 % of control

Cc1ccnc(NC2=CC(=O)C(=O)c3ccccc32)c1
T/C (dose: 37.5 mg/kg/injection, schedule: Q01DX009 (ip), vehicle: saline sonified): 122 % of control

Cc1cc2[nH]c3c(C#N)c(O)c(C)c(=O)n3c2cc1C
T/C [7]: 100 % of control | T/C [8]: 100 % of control | T/C [9]: 100 % of control

COC(=O)C(CCC(=O)OC(C)(C)C)NC(=O)C(NC(=O)OCc1ccccc1)C(C)C (stereo not drawn) (Cbz-Val-Glu(OtBu)-OMe; configuration not given here)
T/C (dose: 100.0 mg/kg/injection, schedule: Q04DX003 (ip), vehicle: saline with Tween-80): 110 % of control | T/C (dose: 200.0 mg/kg/injection, schedule: Q04DX003 (ip), vehicle: saline with Tween-80): 120 % of control | T/C (dose: 400.0 mg/kg/injection, schedule: Q04DX003 (ip), vehicle: saline with Tween-80): 90 % of control

CCCCCCCC(=O)C(=O)c1ccc(O)cc1O
T/C (dose: 50.0 mg/kg/injection, schedule: Q01DX009 (ip), vehicle: Klucel (hydroxypropylcellulose) (HPC)): 109 % of control | T/C (dose: 100.0 mg/kg/injection, schedule: Q01DX009 (ip), vehicle: Klucel (hydroxypropylcellulose) (HPC)): 112 % of control | T/C (dose: 200.0 mg/kg/injection, schedule: Q01DX009 (ip), vehicle: Klucel (hydroxypropylcellulose) (HPC)): 113 % of control

COc1cccc2c1C(=O)c1c(O)c3c(c(O)c1C2=O)CC(O)(/C(C)=N/NS(=O)(=O)c1ccc(C)cc1)CC3OC1CC(N)C(O)C(C)O1 (stereo unspecified)
T/C (dose: 0.78 mg/kg/injection, schedule: Q01DX009 (ip), vehicle: water): 118 % of control | T/C (dose: 1.56 mg/kg/injection, schedule: Q01DX009 (ip), vehicle: water): 113 % of control | T/C (dose: 12.5 mg/kg/injection, schedule: Q01DX009 (ip), vehicle: water): 153 % of control | T/C (dose: 25.0 mg/kg/injection, schedule: Q01DX009 (ip), vehicle: water): 179 % of control

NC1=NC2(CS1)CSC(N)=N2
T/C [1]: 94 % of control | T/C [2]: 113 % of control | T/C [3]: 90 % of control

COc1cc2cc(-c3ccc4c(c3)OCO4)[n+](C)cc2cc1OC
T/C (dose: 6.25 mg/kg/injection, schedule: Q01DX001 (ip), vehicle: Klucel (hydroxypropylcellulose) (HPC)): 100 % of control | T/C (dose: 12.5 mg/kg/injection, schedule: Q01DX001 (ip), vehicle: Klucel (hydroxypropylcellulose) (HPC)): 107 % of control | T/C (dose: 25.0 mg/kg/injection, schedule: Q01DX001 (ip), vehicle: Klucel (hydroxypropylcellulose) (HPC)): 110 % of control | T/C (dose: 50.0 mg/kg/injection, schedule: Q01DX001 (ip), vehicle: Klucel (hydroxypropylcellulose) (HPC)): 96 % of control
